In patent US20220193181A1 (priority 2020, published 2022):

Columns and labels:
[1] = test system: SARS-CoV-1; conditions: Vero E6 cells; cited from earlier work
[2] = target: T1, clotting factor X111 (Homo sapiens, UniProt P00488); conditions: cited from earlier work
T1 sequence (P00488 1-732): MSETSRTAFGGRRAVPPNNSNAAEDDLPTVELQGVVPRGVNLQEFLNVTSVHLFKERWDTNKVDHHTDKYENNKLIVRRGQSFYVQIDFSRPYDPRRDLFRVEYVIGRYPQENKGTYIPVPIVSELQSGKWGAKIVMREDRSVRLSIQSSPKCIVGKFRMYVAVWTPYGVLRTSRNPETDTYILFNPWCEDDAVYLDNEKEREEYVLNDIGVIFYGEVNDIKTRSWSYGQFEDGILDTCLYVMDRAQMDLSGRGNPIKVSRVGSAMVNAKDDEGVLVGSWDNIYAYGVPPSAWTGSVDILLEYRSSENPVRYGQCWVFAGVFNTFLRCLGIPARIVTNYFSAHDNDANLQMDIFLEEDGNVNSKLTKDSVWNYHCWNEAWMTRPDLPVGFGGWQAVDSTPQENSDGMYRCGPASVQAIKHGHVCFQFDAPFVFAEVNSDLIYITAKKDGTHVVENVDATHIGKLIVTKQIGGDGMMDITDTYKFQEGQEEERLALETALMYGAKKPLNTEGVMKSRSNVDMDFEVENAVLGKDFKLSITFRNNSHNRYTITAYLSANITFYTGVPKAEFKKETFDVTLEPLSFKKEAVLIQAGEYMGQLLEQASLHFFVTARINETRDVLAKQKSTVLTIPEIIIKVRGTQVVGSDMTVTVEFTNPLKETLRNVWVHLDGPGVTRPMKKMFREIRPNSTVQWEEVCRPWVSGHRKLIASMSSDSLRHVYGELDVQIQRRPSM

[3] = test system: platelet aggregation; conditions: cited from earlier work
[4] = test system: vascular inflammation; conditions: previously reported by the inventors; cited from earlier work
[5] = test system: Spike S1 treated mice
[6] = target: GSNO reductase (Homo sapiens, UniProt P11766); conditions: cited from earlier work
[7] = test system: EAE mice; assay: Adoptive transfer of B cells from N6022-treated mice to EAE mice
[8] = test system: SARS-CoV-2 patients; conditions: cited from earlier work
[9] = B cells from N6022-treated EAE mice
[10] = B cells from N6022-treated non-EAE mice

Sequence of GSNO reductase (P11766 whole entry): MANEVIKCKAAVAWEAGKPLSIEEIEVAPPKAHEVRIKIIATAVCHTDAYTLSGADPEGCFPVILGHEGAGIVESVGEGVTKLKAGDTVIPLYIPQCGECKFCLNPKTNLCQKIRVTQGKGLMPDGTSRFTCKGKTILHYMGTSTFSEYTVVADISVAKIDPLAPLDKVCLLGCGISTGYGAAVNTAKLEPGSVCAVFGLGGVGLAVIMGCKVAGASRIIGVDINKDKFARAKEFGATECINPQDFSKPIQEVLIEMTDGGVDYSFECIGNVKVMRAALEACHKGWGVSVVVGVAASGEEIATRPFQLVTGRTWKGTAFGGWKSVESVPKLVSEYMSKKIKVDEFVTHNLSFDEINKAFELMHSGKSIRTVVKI

Compound: CC(=O)N[C@@H](C(=O)O)C(C)(C)SN=O (racemic) [SNAP, reference compound]
- viral protein and vRNA synthesis and replication of SARS-CoV-1 [1]: inhibit
- clot formation [2]: inhibited
- clotting factor X111 (transglutaminase) activity [2]: inhibited

Compound: N[C@@H](CCC(=O)N[C@@H](CSN=O)C(=O)NCC(=O)O)C(=O)O [GSNO, S-nitrosoglutathione]
- platelet aggregation [3]: inhibit
- clot formation [2]: inhibited
- clotting factor X111 (transglutaminase) activity [2]: inhibited
- vascular inflammation [4]: inhibit
- vascular integrity [4]: protect
- Spike S1 induced T cell responses (Th1 and Th17 cells) in spleen ([5]; greater effects on Th17 cells): down regulated
- IL-6 positive B cells in spleen ([5]; mouse, in vivo): decreased
- IL-10 positive B cells in spleen ([5]; mouse, in vivo): increased
- Treg cells in spleen ([5]; mouse, in vivo): practically no effect

Compound: Cc1cc(C(N)=O)ccc1-n1c(CCC(=O)O)ccc1-c1ccc(-n2ccnc2)cc1 [N6022]
- GSNO reductase inhibition [6]: potent and reversible
- vascular inflammation [4]: inhibit
- vascular integrity [4]: protect
- TH17 cells in the CNS of recipients [7, 9]: decreased
- blood IL-6 levels of recipients [7, 9]: decreased
- blood IL-10 levels of recipients [7, 9]: increased
- number of Treg cells in the CNS of recipients [7, 9]: increased
- blood cytokine levels and CNS Treg and TH17 cells of recipients [7, 10]: no significant alterations
- disease of recipient EAE mice [7, 10]: no disease attenuation

Compound: TCZ: IL6 receptor antibody that blocks IL-6 signaling
- patients in whom the optical lung lesion on CT scan resolved ([8]; in vivo): 90.5%
- patients whose lymphocyte counts returned to normal ([8]; in vivo): 53%
- patients with improved oxygenation ([8]; in vivo): 75%
- reducing fever ([8]; within a few days): effective
